In paper PMC10123561 (Signal Transduction and Targeted Therapy, 2023):
“And” between values parts separate entries of the source, which are not always exact repeats. Equal entries are not always repeated. “Also recorded” adds a separate entry of the source. Structures can show the parent of a compound that is named as a salt. Where two headings read alike, the source gives them in different places.

How the values were obtained:
SARS-CoV-2 M^pro = SARS-CoV-2 M^pro (Severe acute respiratory syndrome coronavirus 2, UniProt P0DTD1); assay: biochemical
wild type SARS-CoV-2 = assay: microbe, parasite or virus in culture; format: cell-based; conditions: mean ± sd
SARS-CoV-2 PL^pro = SARS-CoV-2 PL^pro (Severe acute respiratory syndrome coronavirus 2, UniProt P0DTD1); assay: SARS-CoV-2 PL^pro inhibition assay; format: biochemical; conditions: read-out: inhibition rate against papain-like protease (PL^pro)
SARS-CoV-2 RdRp complex = SARS-CoV-2 RdRp complex (Severe acute respiratory syndrome coronavirus 2, UniProt P0DTD1); assay: biochemical
[1] = tested on: SARS-CoV-2 strain 20SF107; format: in vivo, rhesus macaques
SARS-CoV-2 = assay: Randomized open-label clinical trial in mild/moderate COVID-19 patients, efficacy; format: in vivo
[2] = male, rhesus monkey, in vivo
[3] = human, in vivo
cyclophilin A = biological target: cyclophilin A; design: method as in PMID 34677780; conditions: cited from earlier work
cathepsin L = conditions: read-out: IC50 against cathepsin L; cited from earlier work
[4] = tested on: SARS-CoV-2 spike mediated cell fusion; conditions: at 10 μM; cited from earlier work
inflammatory cytokines = conditions: at 2.5 μM; cited from earlier work
[5] = rats, 4 h after oral administration; cited from earlier work
[6] = cited from earlier work; for AUC0-∞: healthy human volunteers
[7] = HIV-infected patients; cited from earlier work
[8] = cited from earlier work
in vitro = conditions: African green monkey
[9] = twice daily, cited from earlier work
[10] = Lung distribution study in mouse; conditions: male, ICR, po
[11] = Pharmacokinetics in healthy rhesus macaques after nasogastric administration; conditions: 200 mg/kg nasogastric; for Cmax / AUC / MRT / half-life: rhesus monkey, plasma, 200 mg/kg
[12] = log-rank analysis, N = 5, NE = Not Evaluable

## Cc1c(O)cccc1C(=O)N[C@@H](CSc1ccccc1)[C@H](O)CN1C[C@H]2CCCC[C@H]2C[C@H]1C(=O)NC(C)(C)C [nelfinavir, Nelfinavir Mesylate]
SARS-CoV-2 M^pro; IC50 against SARS-CoV-2 M^pro
  IC50: 23 µM and > 20 µM
SARS-CoV-2 M^pro; IC50 against SARS-CoV-2 main protease (M^pro)
  IC50: 8.26 µM
Wild type SARS-CoV-2; Severe acute respiratory syndrome coronavirus 2, Vero C1008, Vero E6 cells
  EC50: 2930 ± 320 nM
Wild type SARS-CoV-2; Severe acute respiratory syndrome coronavirus 2, Calu-3 cells
  EC50: 1860 ± 260 nM
SARS-CoV-2 PL^pro
  inhibition at 100 µM: 33.3 ± 2.47%
SARS-CoV-2 RdRp complex
  IC50: 112 ± 8.2 µM
[1]; 200 mg/kg prophylactic, twice daily
  body weight change compared with control monkeys: not significant
[1]; 200 mg/kg prophylactic, twice daily, […]
  body temperature compared with vehicle control monkeys: significantly lower
[1]; […], no statistical difference
  viral loads in extrapulmonary tissues, e.g. colon and heart, compared with control group: increasing trends
[1]; at necropsy, prophylactic treatment
  reduction of viral replication in the lungs: nearly three orders of magnitude; also recorded: approximately three orders of magnitude
[1]; rhesus monkey, in vivo
  reduction of virus RNA in lung (left lower lobe) compared to vehicle-treated monkeys: 2.88 log
  viral load in nasal swabs compared with control group: Significant reductions; also recorded: significantly reduced; also recorded: significantly lower
  viral load in rectal (anal) swabs compared with control group: Significant reductions; also recorded: significantly reduced; also recorded: significantly lower
  viral load in throat swabs compared with control group: without significance
  virus RNA in kidney samples: could not be detected
SARS-CoV-2; 7th day of treatment, N = 19
  proportion of subjects whose respiratory specimens were negative for SARS-CoV-2 RNA: 31.6%
SARS-CoV-2; 9/19
  proportion of cases with fever: 47.4%
SARS-CoV-2; 14th day of treatment
  chest CT results of moderate COVID-19: one patient was abnormal and had no clinical significance
SARS-CoV-2; 14th day of treatment, N = 19
  proportion of subjects whose respiratory specimens were negative for SARS-CoV-2 RNA: 68.4%
SARS-CoV-2; 14th day of treatment, patients with mild COVID-19 (N = 5)
  progression to severe or critical pneumonia: no subjects
SARS-CoV-2; N = 5, control 11.0 days
  TTCR time (time to clinical recovery): 7.0 days
SARS-CoV-2; P = 0.014
  shortening of duration of fever time versus control group: 3.8 days
SARS-CoV-2; P = 0.899
  shortening of median time for TTCR: 4.0 days
SARS-CoV-2; control 6.6 ± 4.1 days, P = 0.014
  average fever days (duration of fever time) in patients with fever: 2.8 days and 2.8 ± 1.6 days
SARS-CoV-2; day 7 of treatment
  progression of subjects with mild disease to pneumonia: did not progress to pneumonia
SARS-CoV-2; [12]
  time of TTCR, 25%(95%CI): 4.0(1.0~ NE) d
  time of TTCR, 50%(95%CI): 7.0(1.0~ NE) d
SARS-CoV-2; log-rank analysis, N = 19
  time to convert to negative throat swab, 25%(95%CI): 5.0(1.0~9.0) d
  time to convert to negative throat swab, 50%(95%CI): 9.0(5.0~11.0) d
  time to convert to negative throat swab, 75%(95%CI): 12.0(9.0~22.0) d
SARS-CoV-2; median, P = 0.055
  shortening of duration of viral shedding versus control group: 5.5 days
SARS-CoV-2; nelfinavir 1250 mg every 12 h, N = 19, control 14.5 days, P = 0.055
  median time to convert to negative throat swab of SARS-CoV-2 (duration of viral shedding): 9.0 days
Vero E6 cells
  selectivity index (SI): 17.59
[2]
  plasma concentration in infected relative to healthy rhesus macaques: around 1/6
  trough plasma concentration (Ctrough): 0.26 µM
[2]; 200 mg/kg
  plasma concentration at 5 h after dosing (C5h), average: 0.55 µM
[3]
  cases of grade 1 adverse events: 15 cases
  death of illness: No patients died
  grade of adverse events during the trial: all grade 1
  number of patients with grade 1 adverse events: 10 patients
  patients with abnormal sitting blood pressure, respiratory rate and pulse: no clinically significant patients
  proportion of patients with grade 1 adverse events: 52.6%
Cyclophilin A
  Kd: 940 nM
Cathepsin L
  IC50: 18 µM
[4]
  inhibition of SARS-CoV-2 spike mediated cell fusion: completely inhibit
Inflammatory cytokines
  inhibition of inflammatory cytokines in vitro: successfully inhibit
[5]
  lung-to-plasma ratio: 3.24
[6]; dosage of 100 mg
  AUC0-∞: 1250 ± 230 ng·h/mL
[6]; dosage of 800 mg
  AUC0-∞: 22208 ± 6306 ng·h/mL
[6]; human, 1250 mg BID, ref VIRACEPT FDA Package Insert Reference ID: 3986049
  plasma Ctrough,Morning: 3.87 µM
[6]; human, 1250 mg BID, ref VIRACEPT FDA Package Insert Reference ID: 3986049, read-out: plasma Cmax
  Cmax: 7.04 µM
[7]
  Cmax in PBMCs relative to plasma: ~ 15 fold
  cellular accumulation in PBMCs relative to plasma: 5.30 fold
[8]
  concentration in the lung epithelial lining fluid versus plasma: comparable to that in plasma
  proportion of patients with detectable drug in bronchoalveolar lavage (BAL) fluid: 100%
[8]; human, in vivo
  lung distribution in patients relative to plasma: approximately three times as high as that of plasma
In vitro
  CC50: 51.6 µM
[9]; adults with solid tumors
  maximum tolerated dosage (MTD): 3125 mg
[9]; liposarcoma, MTD not reached
  maximum tolerated dosage (MTD): > 4250 mg
[10]
  Kp: 2 to 3
[10]; 250 mg/kg
  Kp at 0.5 h: 2.08 ± 0.5
  Kp at 1 h: 2.35 ± 0.34
  Kp at 3 h: 2.24 ± 0.59
  Kp at 6 h: 1.81 ± 0.19
  Kp at 9 h: 2.33 ± 0.28
[10]; 750 mg/kg
  Kp at 0.5 h: 2.07 ± 0.42
  Kp at 1 h: 3.11 ± 0.82
  Kp at 3 h: 2.83 ± 0.33
  Kp at 6 h: 3.22 ± 0.63
  Kp at 9 h: 2.61 ± 0.08
[11]; Monkey 1, healthy
  Tpeak: 6.00 h
[11]; Monkey 2, healthy
  Tpeak: 4.00 h
[11]; oral, average maximum plasma concentration (Cmax), two healthy rhesus macaques
  Cmax: 3.2 µM
[11]; po, AUCon, Monkey 1, healthy
  AUC: 28.4 µM·h
[11]; po, AUCon, Monkey 2, healthy
  AUC: 10.6 µM·h
[11]; po, AUCtot, Monkey 1, healthy
  AUC: 28.4 µM·h
[11]; po, AUCtot, Monkey 2, healthy
  AUC: 10.7 µM·h
[11]; po, Cmax, Monkey 1, healthy
  Cmax: 5.33 µM
[11]; po, Cmax, Monkey 2, healthy
  Cmax: 1.07 µM
[11]; po, Monkey 1, healthy
  MRT: 7.25 h
[11]; po, Monkey 2, healthy
  MRT: 12 h
[11]; po, t1/2, Monkey 1, healthy
  half-life: 268 min
[11]; po, t1/2, Monkey 2, healthy
  half-life: 415 min
[11]; two healthy rhesus macaques
  time at which Cmax was achieved after dosing: 5 h
